Data from PMC6213879, “Synthesis and Biological Evaluation of Novel Dehydroabietic Acid-Oxazolidinone Hybrids for Antitumor Properties” (International Journal of Molecular Sciences, 2018).

Columns and labels:
Assay type in all cases: cell-based
Conditions in all cases: mean ± SD from three independent experiments
[1] = system: CNE-2 human nasopharyngeal carcinoma cell line; assay: MTT cytotoxicity assay, CNE-2
Experimental: (§1) The in vitro antiproliferative activity of the DHAA derivatives 3a–o and 4a–o against four human cancer cell lines (MGC-803 human gastric cancer cell line, CNE-2 human nasopharyngeal carcinoma cell line, SK-OV-3 human ovarian carcinoma cell line, NCI-H460 human lung cancer cell line) and the human normal liver cell line LO2 were evaluated by MTT (methyl thiazolytetrazolium) assay and compared with the parent compound DHAA and the positive control cisplatin in each panel.
(§2) The cytotoxicity of the compounds was evaluated against NCI-H460, MGC-803, SK-OV-3, CNE-2 and LO2 using an MTT assay. Cells were grown on 96-well micro-plates at a density of 4 × 10^3 cells per well in DMEM (dulbecco’s modified eagle medium) medium with 10% FBS (fetal bovine serum). The plates were incubated at 37 °C with 5% CO2. The cells were then exposed to different concentrations of target compounds and cisplatin and incubated for another 48 h. Control wells were formed by culture media with the maximum concentration of DMSO used in each assay (1‰). The cells were stained with 20 µL of MTT in an incubator for about 4 h. The medium was thrown away and replaced by […] DMSO. The absorbance (OD) value was read at 490 nm on an enzyme labeling instrument. Each experiment was repeated at least three times to obtain the mean values.

[2] = system: human normal liver cell line LO2; assay: MTT cytotoxicity assay, normal LO2 cells
Experimental: as §1, §2

[3] = system: SK-OV-3 human ovarian carcinoma cell line; assay: MTT cytotoxicity assay, SK-OV-3
Experimental: as §1, §2

[4] = system: MGC-803 human gastric cancer cell line; assay: MTT cytotoxicity assay, MGC-803
Experimental: as §1, §2

[5] = system: NCI-H460 human lung cancer cell line; assay: MTT cytotoxicity assay, NCI-H460
Experimental: as §1, §2

SMILES | IC50 ([1]; Homo sapiens, CNE-2, 48 h) | IC50 ([2]; Homo sapiens, L02, 48 h) | IC50 ([3]; Homo sapiens, SK-OV-3, 48 h) | IC50 ([4]; Homo sapiens, MGC-803, 48 h) | IC50 ([5]; Homo sapiens, NCI-H460, 48 h) | IC50 ([1]; 48 h) | IC50 ([2]; 48 h) | IC50 ([3]; 48 h) | IC50 ([4]; 48 h) | IC50 ([5]; 48 h)
CC(C)c1ccc2c(c1)CCC1[C@](C)(C(=O)OCC(O)CNc3ccc(Cl)cc3)CCC[C@]21C (stereo partly drawn) [Compound 3l, (1R,4aS)-2-Hydroxy-3-(4-Chlorophenylamino)Propyl-7-Isopropyl-1,4a-Dimethyl-1,2,3,4,4a,9,10, 10a-Octahydrophenanthrene-1-Carboxylate] | > 100 µM | > 100 µM | > 100 µM | 34.48 ± 0.02 µM | > 100 µM |  |  |  |  | 
C#Cc1cccc(NCC(O)COC(=O)[C@]2(C)CCC[C@]3(C)c4ccc(C(C)C)cc4CCC23)c1 (stereo partly drawn) [Compound 3o, (1R,4aS)-2-Hydroxy-3-(3-Ethynylphenylamino)Propyl-7-Isopropyl-1,4a-Dimethyl-1,2,3,4,4a,9, 10,10a-Octahydrophenanthrene-1-Carboxylate] | 20 ± 1.09 µM | > 100 µM | 23.1 ± 2.23 µM | 13.4 ± 5.41 µM | 22.3 ± 2.74 µM |  |  |  |  | 
Cc1ccc(NCC(O)COC(=O)[C@]2(C)CCC[C@]3(C)c4ccc(C(C)C)cc4CCC23)cc1 (stereo partly drawn) [Compound 3d, (1R,4aS)-2-Hydroxy-3-(4-Methylphenylamino)Propyl-7-Isopropyl-1,4a-Dimethyl-1,2,3,4,4a,9,10, 10a-Octahydrophenanthrene-1-Carboxylate] | 44.1 ± 2.89 µM | > 100 µM | 29.9 ± 0.8 µM | 21.8 ± 2.66 µM | 44.8 ± 5.26 µM |  |  |  |  | 
Cc1cccc(N2CC(COC(=O)[C@]3(C)CCC[C@]4(C)c5ccc(C(C)C)cc5CCC34)OC2=O)c1 (stereo partly drawn) [Compound 4c, (1R,4aS)-(3-(3-Methylphenyl)-2-Oxooxazolidin-5-yl)Methyl-7-Isopropyl-1,4a-Dimethyl-1,2,3,4,4a,9,10,10a-Octahydrophenanthrene-1-Carboxylate] | 31.96 ± 0.23 µM | 36.2 ± 2.68 µM | > 100 µM | 10.5 ± 1.44 µM | 9.13 ± 2.77 µM |  |  |  |  | 
CC(C)c1ccc2c(c1)CCC1[C@](C)(C(=O)OCC3CN(c4cccc(Cl)c4)C(=O)O3)CCC[C@]21C (stereo partly drawn) [Compound 4k, (1R,4aS)-(3-(3-Chlorophenyl)-2-Oxooxazolidin-5-yl)Methyl-7-Isopropyl-1,4a-Dimethyl-1,2,3,4,4a,9,10,10a-Octahydrophenanthrene-1-Carboxylate] | 31.2 ± 2.5 µM | 37.2 ± 3.14 µM | 10.3 ± 5.46 µM | 7.43 ± 1.42 µM | 23 ± 2.62 µM |  |  |  |  | 
Cc1cccc(NCC(O)COC(=O)[C@]2(C)CCC[C@]3(C)c4ccc(C(C)C)cc4CCC23)c1 (stereo partly drawn) [Compound 3c, (1R,4aS)-2-Hydroxy-3-(3-Methylphenylamino)Propyl-7-Isopropyl-1,4a-Dimethyl-1,2,3,4,4a,9,10, 10a-Octahydrophenanthrene-1-Carboxylate] | 14.6 ± 0.19 µM | 34.7 ± 0.45 µM | 14.8 ± 4.03 µM | 12.3 ± 4.87 µM | 20.1 ± 2.95 µM |  |  |  |  | 
COc1ccc(NCC(O)COC(=O)[C@]2(C)CCC[C@]3(C)c4ccc(C(C)C)cc4CCC23)cc1 (stereo partly drawn) [Compound 3g, (1R,4aS)-2-Hydroxy-3-(4-Methoxyphenylamino)Propyl-7-Isopropyl-1,4a-Dimethyl-1,2,3,4,4a,9, 10,10a-Octahydrophenanthrene-1-Carboxylate] | > 100 µM | > 100 µM | > 100 µM | 51.7 ± 1.85 µM | > 100 µM |  |  |  |  | 
CC(C)c1ccc2c(c1)CCC1[C@](C)(C(=O)OCC(O)CNc3ccccc3F)CCC[C@]21C (stereo partly drawn) [Compound 3h, (1R,4aS)-2-Hydroxy-3-(2-Fluorophenylamino)Propyl-7-Isopropyl-1,4a-Dimethyl-1,2,3,4,4a,9,10, 10a-Octahydrophenanthrene-1-Carboxylate] | 45.7 ± 5.8 µM | > 100 µM | > 100 µM | 17.5 ± 3.51 µM | 30.2 ± 3.4 µM |  |  |  |  | 
CC(C)c1ccc2c(c1)CCC1[C@](C)(C(=O)OCC(O)CNc3ccc(Br)cc3)CCC[C@]21C (stereo partly drawn) [Compound 3n, (1R,4aS)-2-Hydroxy-3-(4-Bromophenylamino)Propyl-7-Isopropyl-1,4a-Dimethyl-1,2,3,4,4a,9,10, 10a-Octahydrophenanthrene-1-Carboxylate] | 17.9 ± 4.47 µM | > 100 µM | 19 ± 2.11 µM | 9.91 ± 7 µM | 19.1 ± 5.23 µM |  |  |  |  | 
CC(C)c1ccc2c(c1)CCC1[C@](C)(C(=O)OCC(O)CNc3cccc(Br)c3)CCC[C@]21C (stereo partly drawn) [Compound 3m, (1R,4aS)-2-Hydroxy-3-(3-Bromophenylamino)Propyl-7-Isopropyl-1,4a-Dimethyl-1,2,3,4,4a,9,10, 10a-Octahydrophenanthrene-1-Carboxylate] | 23.2 ± 2.78 µM | > 100 µM | 30.3 ± 0.59 µM | 16.5 ± 5.2 µM | 19.6 ± 1.12 µM |  |  |  |  | 
CC(C)c1ccc2c(c1)CCC1[C@](C)(C(=O)OCC3CN(c4ccccc4F)C(=O)O3)CCC[C@]21C (stereo partly drawn) [Compound 4h, (1R,4aS)-(3-(2-Fluorophenyl)-2-Oxooxazolidin-5-yl)Methyl-7-Isopropyl-1,4a-Dimethyl-1,2,3,4,4a, 9,10,10a-Octahydrophenanthrene-1-Carboxylate] | > 100 µM | > 100 µM | > 100 µM | 49.9 ± 1.14 µM | > 100 µM |  |  |  |  | 
CC(C)c1ccc2c(c1)CCC1[C@](C)(C(=O)OCC(O)CNc3cccc(F)c3)CCC[C@]21C (stereo partly drawn) [Compound 3i, (1R,4aS)-2-Hydroxy-3-(3-Fluorophenylamino)Propyl-7-Isopropyl-1,4a-Dimethyl-1,2,3,4,4a,9,10, 10a-Octahydrophenanthrene-1-Carboxylatev] | > 100 µM | > 100 µM | > 100 µM | > 100 µM | > 100 µM |  |  |  |  | 
CC(C)c1ccc2c(c1)CCC1[C@](C)(C(=O)OCC3CN(c4cccc(F)c4)C(=O)O3)CCC[C@]21C (stereo partly drawn) [Compound 4i, (1R,4aS)-(3-(3-Fluorophenyl)-2-Oxooxazolidin-5-yl)Methyl-7-Isopropyl-1,4a-Dimethyl-1,2,3,4,4a, 9,10,10a-Octahydrophenanthrene-1-Carboxylate] | 28 ± 3.95 µM | > 100 µM | 9.86 ± 4.3 µM | 11.5 ± 0.25 µM | 25.1 ± 4.5 µM |  |  |  |  | 
COc1ccccc1NCC(O)COC(=O)[C@]1(C)CCC[C@]2(C)c3ccc(C(C)C)cc3CCC12 (stereo partly drawn) [Compound 3e, (1R,4aS)-2-Hydroxy-3-(2-Methoxyphenylamino)Propyl-7-Isopropyl-1,4a-Dimethyl-1,2,3,4,4a,9, 10,10a-Octahydrophenanthrene-1-Carboxylate] | 27.4 ± 0.51 µM | 32.3 ± 1.56 µM | 19.5 ± 2.23 µM | 28.5 ± 1.35 µM | 26.1 ± 1.92 µM |  |  |  |  | 
CC(C)c1ccc2c(c1)CCC1[C@](C)(C(=O)OCC(O)CNc3ccc(F)cc3)CCC[C@]21C (stereo partly drawn) [Compound 3j, (1R,4aS)-2-Hydroxy-3-(4-Fluorophenylamino)Propyl-7-Isopropyl-1,4a-Dimethyl-1,2,3,4,4a,9,10, 10a-Octahydrophenanthrene-1-Carboxylate] | 20.7 ± 2.31 µM | 28.7 ± 0.55 µM | 18.9 ± 1.66 µM | 14.2 ± 1.7 µM | 15.6 ± 1.45 µM |  |  |  |  | 
COc1cccc(NCC(O)COC(=O)[C@]2(C)CCC[C@]3(C)c4ccc(C(C)C)cc4CCC23)c1 (stereo partly drawn) [Compound 3f, (1R,4aS)-2-Hydroxy-3-(3-Methoxyphenylamino)Propyl-7-Isopropyl-1,4a-Dimethyl-1,2,3,4,4a,9, 10,10a-Octahydrophenanthrene-1-Carboxylate] | 17.4 ± 4.32 µM | > 100 µM | 18.01 ± 0.09 µM | 18.4 ± 1.45 µM | 21.9 ± 8.61 µM |  |  |  |  | 
N.N.[Cl][Pt][Cl] [cisplatin, reference compound] |  |  |  |  |  | 21 ± 2.25 µM | 36.4 ± 0.79 µM | 10.4 ± 0.25 µM | 14.9 ± 1.78 µM | 24.1 ± 1.74 µM
